According to patent publication US10538554B2, “Peptides and uses therefor as antiviral agents” (priority 2015, dated 2020):
Bridge positions count the residues as written; N and C are the ends. Square brackets hold non-standard residues; d marks the D form. Peptide text beside a SMILES is read from it.

Tests used:
H1N1 A/NY/18/2009 = details: A/NY/18/2009, 48 h, 10 μM
H1N1 A/PR/8/1934 = details: A/PR/8/1934, 48 h, 10 μM
H9N2 A/Iran/16/2000 = details: 48 h, 10 μM
H3N2 A/HK/8/1968 = details: A/HK/8/1968, 48 h, 10 μM
[1] = system: H1N1 A1/Malaysia/302/1954; details: A1/Malaysia/302/1954, 48 h, 10 μM
H3N8 A/Miami/2/63 = details: A/Miami/2/63, 48 h, 10 μM

SMILES | % Inhibition Pdm 2009 (H1N1 A/NY/18/2009) [%] | % Inhibition PR/8 (H1N1 A/PR/8/1934) [%] | % inhibition H9N2 (H9N2 A/Iran/16/2000) [%] | % inhibition H3N2 (H3N2 A/HK/8/1968) [%] | % inhibition H1N1 [1] [%] | % inhibition H3N8 (H3N8 A/Miami/2/63) [%]
CC[C@@H](C)[C@H]1NC(=O)[C@@H](Cc2ccccc2)NC(=O)[C@@H](CS)NC(=O)[C@@H](Cc2ccccc2)NC(=O)[C@@H](Cc2c[nH]c3ccccc23)NC(=O)[C@@H]([C@H](C)O)NC(=O)[C@H](NC(=O)[C@H](CCCCN)NC(=O)[C@H](CCCCN)NC(=O)[C@H](CCCNC(=N)N)NC(=O)[C@@H](N)CCCNC(=N)N)CSSC[C@H](C(=O)O)NC(=O)[C@@H](CC(N)=O)NC1=O [PSP IV A2, H-RRKKctwfcfinc-OH] (H-RRKK[dC][dT][dW][dF][dC][dF][dI][dN][dC]-OH; disulfide 5-13) | 68 | 68 | 64 | 82 | 60 | 76
CC[C@@H](C)[C@H]1NC(=O)[C@@H](Cc2ccccc2)NC(=O)[C@@H](CCC(=O)O)NC(=O)[C@@H](Cc2ccccc2)NC(=O)[C@@H](Cc2c[nH]c3ccccc23)NC(=O)[C@@H]([C@H](C)O)NC(=O)[C@H](NC(=O)[C@H](CCCCN)NC(=O)[C@H](CCCCN)NC(=O)[C@H](CCCNC(=N)N)NC(=O)[C@@H](N)CCCNC(=N)N)CSSC[C@H](C(=O)O)NC(=O)[C@@H](CC(N)=O)NC1=O [PSP IV A4, H-RRKKctwfefinc-OH] (H-RRKK[dC][dT][dW][dF][dE][dF][dI][dN][dC]-OH; disulfide 5-13) | 45 |  | 53 |  | 62 | 72
CC[C@@H](C)[C@H]1NC(=O)[C@@H](Cc2ccccc2)NC(=O)CNC(=O)[C@@H](Cc2ccccc2)NC(=O)[C@@H](Cc2c[nH]c3ccccc23)NC(=O)[C@@H]([C@H](C)O)NC(=O)[C@H](NC(=O)[C@H](CCCCN)NC(=O)[C@H](CCCCN)NC(=O)[C@H](CCCNC(=N)N)NC(=O)[C@@H](N)CCCNC(=N)N)CSSC[C@H](C(=O)O)NC(=O)[C@@H](CC(N)=O)NC1=O [PSP IV A6, H-RRKKctwfGfinc-OH] (H-RRKK[dC][dT][dW][dF]G[dF][dI][dN][dC]-OH; disulfide 5-13) | 47 |  | 35 |  | 59 | 57
CC[C@@H](C)[C@H]1NC(=O)[C@@H](Cc2ccccc2)NC(=O)[C@@H](Cc2c[nH]cn2)NC(=O)[C@@H](Cc2ccccc2)NC(=O)[C@@H](Cc2c[nH]c3ccccc23)NC(=O)[C@@H]([C@H](C)O)NC(=O)[C@H](NC(=O)[C@H](CCCCN)NC(=O)[C@H](CCCCN)NC(=O)[C@H](CCCNC(=N)N)NC(=O)[C@@H](N)CCCNC(=N)N)CSSC[C@H](C(=O)O)NC(=O)[C@@H](CC(N)=O)NC1=O [PSP IV A7, H-RRKKctwfhfinc-OH] (H-RRKK[dC][dT][dW][dF][dH][dF][dI][dN][dC]-OH; disulfide 5-13) | 71 | 73 | 65 | 80 | 68 | 79
CC[C@@H](C)[C@H]1NC(=O)[C@@H](Cc2ccccc2)NC(=O)[C@@H]([C@H](C)CC)NC(=O)[C@@H](Cc2ccccc2)NC(=O)[C@@H](Cc2c[nH]c3ccccc23)NC(=O)[C@@H]([C@H](C)O)NC(=O)[C@H](NC(=O)[C@H](CCCCN)NC(=O)[C@H](CCCCN)NC(=O)[C@H](CCCNC(=N)N)NC(=O)[C@@H](N)CCCNC(=N)N)CSSC[C@H](C(=O)O)NC(=O)[C@@H](CC(N)=O)NC1=O [PSP IV A8, H-RRKKctwfifinc-OH] (H-RRKK[dC][dT][dW][dF][dI][dF][dI][dN][dC]-OH; disulfide 5-13) | 95 | 97 | 92 | 96 | 92 | 96
CC[C@@H](C)[C@H]1NC(=O)[C@@H](Cc2ccccc2)NC(=O)[C@@H](CCCCN)NC(=O)[C@@H](Cc2ccccc2)NC(=O)[C@@H](Cc2c[nH]c3ccccc23)NC(=O)[C@@H]([C@H](C)O)NC(=O)[C@H](NC(=O)[C@H](CCCCN)NC(=O)[C@H](CCCCN)NC(=O)[C@H](CCCNC(=N)N)NC(=O)[C@@H](N)CCCNC(=N)N)CSSC[C@H](C(=O)O)NC(=O)[C@@H](CC(N)=O)NC1=O [PSP IV A9, H-RRKKctwfkfinc-OH] (H-RRKK[dC][dT][dW][dF][dK][dF][dI][dN][dC]-OH; disulfide 5-13) | 66 | 74 | 39 | 73 | 56 | 79
CC[C@@H](C)[C@H]1NC(=O)[C@@H](Cc2ccccc2)NC(=O)[C@@H](CC(C)C)NC(=O)[C@@H](Cc2ccccc2)NC(=O)[C@@H](Cc2c[nH]c3ccccc23)NC(=O)[C@@H]([C@H](C)O)NC(=O)[C@H](NC(=O)[C@H](CCCCN)NC(=O)[C@H](CCCCN)NC(=O)[C@H](CCCNC(=N)N)NC(=O)[C@@H](N)CCCNC(=N)N)CSSC[C@H](C(=O)O)NC(=O)[C@@H](CC(N)=O)NC1=O [PSP IV A10, H-RRKKctwflfinc-OH] (H-RRKK[dC][dT][dW][dF][dL][dF][dI][dN][dC]-OH; disulfide 5-13) | 85 | 96 | 97 | 96 | 90 | 96
CC[C@@H](C)[C@H]1NC(=O)[C@@H](Cc2ccccc2)NC(=O)[C@@H](CCSC)NC(=O)[C@@H](Cc2ccccc2)NC(=O)[C@@H](Cc2c[nH]c3ccccc23)NC(=O)[C@@H]([C@H](C)O)NC(=O)[C@H](NC(=O)[C@H](CCCCN)NC(=O)[C@H](CCCCN)NC(=O)[C@H](CCCNC(=N)N)NC(=O)[C@@H](N)CCCNC(=N)N)CSSC[C@H](C(=O)O)NC(=O)[C@@H](CC(N)=O)NC1=O [PSP IV A11, H-RRKKctwfmfinc-OH] (H-RRKK[dC][dT][dW][dF][dM][dF][dI][dN][dC]-OH; disulfide 5-13) | 88 | 85 | 84 | 90 | 89 | 93
CC[C@@H](C)[C@H]1NC(=O)[C@@H](Cc2ccccc2)NC(=O)[C@@H](CC(N)=O)NC(=O)[C@@H](Cc2ccccc2)NC(=O)[C@@H](Cc2c[nH]c3ccccc23)NC(=O)[C@@H]([C@H](C)O)NC(=O)[C@H](NC(=O)[C@H](CCCCN)NC(=O)[C@H](CCCCN)NC(=O)[C@H](CCCNC(=N)N)NC(=O)[C@@H](N)CCCNC(=N)N)CSSC[C@H](C(=O)O)NC(=O)[C@@H](CC(N)=O)NC1=O [PSP IV A12, H-RRKKctwfnfinc-OH] (H-RRKK[dC][dT][dW][dF][dN][dF][dI][dN][dC]-OH; disulfide 5-13) | 60 |  | 48 |  | 67 | 56
CC[C@@H](C)[C@H]1NC(=O)[C@@H](Cc2ccccc2)NC(=O)[C@H]2CCCN2C(=O)[C@@H](Cc2ccccc2)NC(=O)[C@@H](Cc2c[nH]c3ccccc23)NC(=O)[C@@H]([C@H](C)O)NC(=O)[C@H](NC(=O)[C@H](CCCCN)NC(=O)[C@H](CCCCN)NC(=O)[C@H](CCCNC(=N)N)NC(=O)[C@@H](N)CCCNC(=N)N)CSSC[C@H](C(=O)O)NC(=O)[C@@H](CC(N)=O)NC1=O [PSP IV A13, H-RRKKctwfpfinc-OH] (H-RRKK[dC][dT][dW][dF][dP][dF][dI][dN][dC]-OH; disulfide 5-13) | 65 | 66 | 55 | 74 | 52 | 69
CC[C@@H](C)[C@H]1NC(=O)[C@@H](Cc2ccccc2)NC(=O)[C@@H](CCC(N)=O)NC(=O)[C@@H](Cc2ccccc2)NC(=O)[C@@H](Cc2c[nH]c3ccccc23)NC(=O)[C@@H]([C@H](C)O)NC(=O)[C@H](NC(=O)[C@H](CCCCN)NC(=O)[C@H](CCCCN)NC(=O)[C@H](CCCNC(=N)N)NC(=O)[C@@H](N)CCCNC(=N)N)CSSC[C@H](C(=O)O)NC(=O)[C@@H](CC(N)=O)NC1=O [PSP IV A14, H-RRKKctwfqfinc-OH] (H-RRKK[dC][dT][dW][dF][dQ][dF][dI][dN][dC]-OH; disulfide 5-13) | 74 | 77 | 68 | 83 | 66 | 83
CC[C@@H](C)[C@H]1NC(=O)[C@@H](Cc2ccccc2)NC(=O)[C@@H](CO)NC(=O)[C@@H](Cc2ccccc2)NC(=O)[C@@H](Cc2c[nH]c3ccccc23)NC(=O)[C@@H]([C@H](C)O)NC(=O)[C@H](NC(=O)[C@H](CCCCN)NC(=O)[C@H](CCCCN)NC(=O)[C@H](CCCNC(=N)N)NC(=O)[C@@H](N)CCCNC(=N)N)CSSC[C@H](C(=O)O)NC(=O)[C@@H](CC(N)=O)NC1=O [PSP IV A16, H-RRKKctwfsfinc-OH] (H-RRKK[dC][dT][dW][dF][dS][dF][dI][dN][dC]-OH; disulfide 5-13) | 81 | 78 | 89 | 96 | 91 | 93
CC[C@@H](C)[C@H]1NC(=O)[C@@H](Cc2ccccc2)NC(=O)[C@@H](C(C)C)NC(=O)[C@@H](Cc2ccccc2)NC(=O)[C@@H](Cc2c[nH]c3ccccc23)NC(=O)[C@@H]([C@H](C)O)NC(=O)[C@H](NC(=O)[C@H](CCCCN)NC(=O)[C@H](CCCCN)NC(=O)[C@H](CCCNC(=N)N)NC(=O)[C@@H](N)CCCNC(=N)N)CSSC[C@H](C(=O)O)NC(=O)[C@@H](CC(N)=O)NC1=O [PSP IV A18, H-RRKKctwfvfinc-OH] (H-RRKK[dC][dT][dW][dF][dV][dF][dI][dN][dC]-OH; disulfide 5-13) | 97 | 96 | 95 | 96 | 84 | 96
